Values after ≈ are worked out from the molar mass of the structure shown. Like-named read-outs stand apart in the source and are kept apart here.
Legend:
Type in all cases: cell-based
Bacillus subtilis (Bs) = assay: Minimum inhibitory concentration (MIC) in nutrient agar, Bacillus subtilis
Description: (§1) The antimicrobial activity of the compounds of the present invention is set forth as the minimum inhibitory concentration (MIC) for the active compounds and is determined for nine (9) bacteria, using nutrient agar, and seven (7) yeast and fungi, using malt yeast agar. This determination is conducted using a one percent solution of the test compound prepared in a mixture of acetone and water.
(§2) Nutrient agar is prepared at pH 6.8, representing a neutral medium, and at pH 8.2, representing an alkaline medium. The nutrient agars are prepared by adding 23 g of nutrient agar to one-liter of deionized water. In addition, the alkaline medium is prepared by adjusting a 0.04M solution of N-[tris-(hydroxymethyl)methyl]glycine buffered deionized water with concentrated sodium hydroxide to a pH of 8.5.
(§3) The test tubes containing the agar are cooled in a water bath until the temperature of the agar is 48° C. Then, an appropriate amount of the one percent solution of the test compound is added (except in the controls where no compound is added) to the respective test tubes so that the final concentrations are 500, […], 100, 50, 25, 10, 5, 2.5, 1.0 and zero parts per million of the test compound in the agar, thus having a known concentration of test compound dispersed therein. The contents of the test tubes are then transferred to respective petri plates. After drying for 24 hours, the petri plates containing nutrient agar are inoculated with bacteria and those containing malt yeast agar are inoculated with yeast and fungi.
(§4) The inoculation with bacteria is accomplished by using the following procedure. Twenty-four hour-cultures of each of the bacteria are prepared by incubating the respective bacteria in tubes containing nutrient broth for 24 hours at 30° C. in a shaker. Dilutions of each of the 24 hour-cultures are made so that nine separate suspensions (one for each of the nine test bacteria) are made, each containing 10^8 colony forming units (CFU) per mL of suspension of a particular bacteria. Aliquots of 0.3 mL of each of the bacterial suspensions are used to fill the individual wells of Steer's Replicator. For each microbial suspension, 0.3 mL was used to fill three wells (i.e., three wells of 0.3 mL each) so that for the nine different bacteria, 27 wells are filled. The Steer's Replicator is then used to inoculate both the neutral and alkaline pH nutrient agar petri plates.
(§5) The inoculated petri plates are incubated at 30° C. for 48 hours and then read to determine if the test compound which is incorporated into the agar prevented growth of the respective bacteria.

[1] = system: Enterobacter aerogenes (Ea); assay: Minimum inhibitory concentration (MIC) in nutrient agar, Enterobacter aerogenes; details: Klebsiella aerogenes, 48 h
Description: as §1, §2, §3, §4, §5

Escherichia coli (Ec) = assay: Minimum inhibitory concentration (MIC) in nutrient agar, Escherichia coli
Description: as §1, §2, §3, §4, §5

[2] = system: Klebsiella pneumoniae (Kp); assay: Minimum inhibitory concentration (MIC) in nutrient agar, Klebsiella pneumoniae
Description: as §1, §2, §3, §4, §5

Proteus vulgaris (Pv) = assay: Minimum inhibitory concentration (MIC) in nutrient agar, Proteus vulgaris; details: 48 h
Description: as §1, §2, §3, §4, §5

[3] = system: Pseudomonas aeruginosa (PRD-10); assay: Minimum inhibitory concentration (MIC) in nutrient agar, Pseudomonas aeruginosa PRD-10; details: 48 h
Description: as §1, §2, §3, §4, §5

[4] = system: Pseudomonas aeruginosa (Pa); assay: Minimum inhibitory concentration (MIC) in nutrient agar, Pseudomonas aeruginosa; details: 30° C., 48 hours, read-out: Minimum Inhibitory Concentration, Pa
Description: as §1, §2, §3, §4, §5

[5] = system: Salmonella choleraesuis (Se); assay: Minimum inhibitory concentration (MIC) in nutrient agar, Salmonella choleraesuis; details: Salmonella enterica
Description: as §1, §2, §3, §4, §5

[6] = system: Staphylococcus aureus (Sa); assay: Minimum inhibitory concentration (MIC) in nutrient agar, Staphylococcus aureus
Description: as §1, §2, §3, §4, §5

Aspergillus niger (An) = assay: Minimum inhibitory concentration (MIC) in malt yeast agar, Aspergillus niger
Description: as §1
(§6) Malt yeast agar is prepared at pH 5.5 by adding 3 g yeast extract and 45 g malt agar per liter of deionized water. The specific agar is dispensed in 30 mL aliquots into 25×200 mm test tubes, capped and autoclaved for 15 minutes at 115° C.
as §3
(§7) The inoculation with the yeast and fungi is accomplished as follows. Cultures of yeast and fungi are incubated for seven days on malt yeast agar at 30° C. These cultures are used to prepare suspensions by the following procedure. A suspension of each organism is prepared by adding 10 mL of sterile saline and 10 microliters of octylphenoxy polyethoxy ethanol to the agar slant of yeast or fungi. The sterile saline/octylphenoxy potyethoxy ethanol solution is then agitated with a sterile swab to suspend the microorganism grown on the slant. Each resulting suspension is diluted into sterile saline (1 part suspension: 9 parts sterile saline). Aliquots of these dilutions are placed in individual wells of Steer's Replicator and petri plates inoculated as previously described. The petri plates are incubated at 30° C. and read after 48 hours for yeast and 72 hours for fungi.

Candida albicans (Ca) = assay: Minimum inhibitory concentration (MIC) in malt yeast agar, Candida albicans; details: pH 5.5; malt yeast agar, 30° C., 48 hours for yeast; read-out: Minimum Inhibitory Concentration, Ca
Description: as §1, §6, §3, §7

[7] = system: Penicillium chrysogenum (Pc); assay: Minimum inhibitory concentration (MIC) in malt yeast agar, Penicillium chrysogenum; details: 72 h, pH 5.5, read-out: Minimum Inhibitory Concentration, PC
Description: as §1, §6, §3, §7

[8] = system: Saccharomyces cerevisiae (Sc); assay: Minimum inhibitory concentration (MIC) in malt yeast agar, Saccharomyces cerevisiae
Description: as §1, §6, §3, §7

Trichoderma viride (Tv) = assay: Minimum inhibitory concentration (MIC) in malt yeast agar, Trichoderma viride; details: 72 h, pH 5.5, read-out: Minimum Inhibitory Concentration, Tv
Description: as §1, §6, §3, §7

[9] = system: Aureobasidium pullulan (Ap); assay: Minimum inhibitory concentration (MIC) in malt yeast agar, Aureobasidium pullulan
Description: as §1, §6, §3, §7

Fusarium oxysporum (Fo) = assay: Minimum inhibitory concentration (MIC) in malt yeast agar, Fusarium oxysporum
Description: as §1, §6, §3, §7

[10] = 48 h, pH 8.2, read-out: Minimum Inhibitory Concentration, Bs
[11] = pH 6.8, nutrient agar, 30° C., 48 hours, read-out: Minimum Inhibitory Concentration, Bs
[12] = pH 6.8, read-out: Minimum Inhibitory Concentration, Ea
[13] = pH 8.2, read-out: Minimum Inhibitory Concentration, Ea
[14] = 48 h, pH 8.2, read-out: Minimum Inhibitory Concentration, Ec
[15] = pH 6.8, read-out: Minimum Inhibitory Concentration, Pv
[16] = pH 8.2, read-out: Minimum Inhibitory Concentration, Pv
[17] = pH 6.8, read-out: Minimum Inhibitory Concentration, PRD
[18] = pH 8.2, read-out: Minimum Inhibitory Concentration, PRD
[19] = 48 h, pH 8.2, read-out: Minimum Inhibitory Concentration, SC
[20] = 48 h, pH 8.2, read-out: Minimum Inhibitory Concentration, Sa
[21] = pH 6.8, nutrient agar, 30° C., 48 hours, read-out: Minimum Inhibitory Concentration, Sa

SMILES | MIC (Bacillus subtilis (Bs); [10]) [µg/mL] | MIC (Bacillus subtilis (Bs); [11]) [µg/mL] | MIC [1, 12] [µg/mL] | MIC [1, 13] [µg/mL] | MIC (Escherichia coli (Ec); [14]) [µg/mL] | MIC (Proteus vulgaris (Pv); [15]) [µg/mL] | MIC (Proteus vulgaris (Pv); [16]) [µg/mL] | MIC [3, 17] [µg/mL] | MIC [3, 18] [µg/mL] | MIC ([4]; pH 6.8, nutrient agar) [µg/mL] | MIC ([4]; pH 8.2, nutrient agar) [µg/mL] | MIC [5, 19] [µg/mL] | MIC [6, 20] [µg/mL] | MIC [6, 21] [µg/mL] | MIC (Candida albicans (Ca)) [µg/mL] | MIC [7] [µg/mL] | MIC (Trichoderma viride (Tv)) [µg/mL] | also measured
N#CSc1nsnc1-c1ccc(Cl)cc1 [Example II, 4-(4-Chlorophenyl)-3-thiocyanato-1,2,5-thiadiazole] | 500 (≈ 1970 µM) | 250 (≈ 985 µM) | > 500 | > 500 | > 500 | > 500 | > 500 | > 500 | > 500 | > 500 | 500 (≈ 1970 µM) | 500 (≈ 1970 µM) | 500 (≈ 1970 µM) | 250 (≈ 985 µM) | < 10 | < 10 | < 10 | MIC (Escherichia coli (Ec); 48 h, pH 6.8, read-out: Minimum Inhibitory Concentration, Ec): 50 µg/mL (≈ 197 µM); MIC ([2]; 48 h, pH 6.8, read-out: Minimum Inhibitory Concentration, Kp): 50 µg/mL (≈ 197 µM); MIC ([2]; pH 8.2, nutrient agar, 30° C., 48 hours, read-out: Minimum Inhibitory Concentration, Kp): 250 µg/mL (≈ 985 µM); MIC ([5]; 48 h, pH 6.8, read-out: Minimum Inhibitory Concentration, SC): > 500 µg/mL; MIC (Aspergillus niger (An); pH 5.5, malt yeast agar, 30° C., 72 hours for fungi, read-out: Minimum Inhibitory Concentration, An): < 10 µg/mL; MIC ([8]; pH 5.5, malt yeast agar, 30° C., 48 hours for yeast, read-out: Minimum Inhibitory Concentration, SC): < 10 µg/mL; MIC ([9]; pH 5.5, malt yeast agar, 30° C., read-out: Minimum Inhibitory Concentration, Ap): < 10 µg/mL; MIC (Fusarium oxysporum (Fo); pH 5.5, malt yeast agar, 30° C., 72 hours for fungi, read-out: Minimum Inhibitory Concentration, Fo): < 10 µg/mL
N#CSc1nsnc1-c1ccccc1Cl [Example IV, 4-(2-Chlorophenyl)-3-thiocyanatol-1,2,5-thiadiazole] | 250 (≈ 985 µM) | < 10 | > 500 | 500 (≈ 1970 µM) | 500 (≈ 1970 µM) | > 500 | 500 (≈ 1970 µM) | > 500 | 500 (≈ 1970 µM) | > 500 | 500 (≈ 1970 µM) | 500 (≈ 1970 µM) | 500 (≈ 1970 µM) | 25 (≈ 98.5 µM) | < 10 | 10 (≈ 39.4 µM) | 10 (≈ 39.4 µM) | MIC (Escherichia coli (Ec); pH 6.8, nutrient agar, 30° C., 48 hours, read-out: Minimum Inhibitory Concentration, Ec): 250 µg/mL (≈ 985 µM); MIC ([2]; 48 h, pH 8.2, read-out: Minimum Inhibitory Concentration, Kp): 500 µg/mL (≈ 1970 µM); MIC ([2]; pH 6.8, nutrient agar, 30° C., 48 hours, read-out: Minimum Inhibitory Concentration, Kp): > 500 µg/mL; MIC ([5]; pH 6.8, nutrient agar, 30° C., 48 hours, read-out: Minimum Inhibitory Concentration, SC): 100 µg/mL (≈ 394 µM); MIC (Aspergillus niger (An); 72 h, pH 5.5, read-out: Minimum Inhibitory Concentration, An): 25 µg/mL (≈ 98.5 µM); MIC ([8]; 48 h, pH 5.5, read-out: Minimum Inhibitory Concentration, SC): 2.5 µg/mL (≈ 9.85 µM); MIC ([9]; pH 5.5, read-out: Minimum Inhibitory Concentration, Ap): 5 µg/mL (≈ 19.7 µM); MIC (Fusarium oxysporum (Fo); 72 h, pH 5.5, read-out: Minimum Inhibitory Concentration, Fo): 5 µg/mL (≈ 19.7 µM)
